# Measurements published in EP2862575B1, “APPLICATION OF PICEATANNOL-3'-O-B-D-GLUCOPYRANOSIDE IN PREPARATION OF MEDICAMENTS FOR IMPROVING MICROCIRCULATION BLOCK” (KPC Pharmaceuticals, Inc., priority 2012, dated 2013).
# Key:
# [1] = solubility test (excess compound shaken to equilibrium, UV at 319 nm); format: physicochemical; conditions: 25±1°C, 72 h
# Description: A series of solutions of gastrodin or hydroxypropyl-β-cyclodextrin or a mixture of gastrodin and hydroxypropyl-β-cyclodextrin were prepared in volumetric flasks according to the concentrations specified in the tables below. Excessive piceatannol-3'-o-β-d-glucopyranoside was added to the solutions prepared above, which were then shaken at 25±1°C in a thermostatic water bath continuously for 72 h until equilibrium was reached. The solutions were precisely taken out and filtered through a 0.45µm filter. The filtered solutions were diluted to prepare test solutions containing 6µg piceatannol-3'-o-β-d-glucopyranoside per milliliter. Appropriate amount of control sample was precisely weighed out, dissolved in water and diluted to prepare a control solution. The absorbance values of both types of solutions were measured at 319 nm using UV spectrophotometry, from which the solubility can be calculated. The test results of solubility can be seen in the tables below: […]
# mice = test: acute and long-term toxicity tests in mice; format: in vivo; conditions: administrated in a range of safe dose
# mouse = test: acute toxicity test, gastric gavage, mouse; conditions: within 24 h
# beagle dog = test: acute toxicity test, gastric gavage, beagle dog; conditions: within 24 h
# human = test: maximum tolerated dose for human calculated from animal doses; format: in vivo; conditions: calculated on the basis of a body weight of 60 kg from maximum tolerated dose of intramuscular and intravenous injection for animals
Compound,Solubility of piceatannol-3'-o-β-d-glucopyranoside ([1]; Gastrodin 45 % + Hydroxypropyl-β-cyclodextrin 3 %),Solubility of piceatannol-3'-o-β-d-glucopyranoside ([1]; Gastrodin 50 % + Hydroxypropyl-β-cyclodextrin 3 %),Solubility of piceatannol-3'-o-β-d-glucopyranoside ([1]; Hydroxypropyl-β-cyclodextrin 45 %),Solubility of piceatannol-3'-o-β-d-glucopyranoside ([1]; Hydroxypropyl-β-cyclodextrin 50 %),chromosome aberration or mutagenesis (genotoxicity test),toxic effect (mice),single maximum dosage given by gastric gavage (mouse),single maximum dosage given by gastric gavage (beagle dog),maximum tolerated dose for human (human)
OC[C@H]1O[C@@H](Oc2cc(/C=C/c3cc(O)cc(O)c3)ccc2O)[C@H](O)[C@@H](O)[C@@H]1O [piceatannol-3'-o-β-d-glucopyranoside],186.789 mg/mL,188.029 mg/mL,180.509 mg/mL,183.10 mg/mL,no chromosome aberration or mutagenesis observed,no toxic effect observed,13.33 g/kg.bw,5 g/kg.bw,
"OCc1ccc(O[C@@H]2O[C@H](CO)[C@@H](O)[C@H](O)[C@H]2O)cc1 [Gastrodin, 4-hydroxymethylphenyl-β-D-glucopyranoside hemihydrate]",,,,,,,,,33.249 g
